Results as given in patent US20250059174A1, “Pharmaceutical Compounds and Compositions as C-Kit Kinase Inhibitors” (Enanta Pharmaceuticals, Inc., priority 2023, published 2025).

Experiments:
[1] = biological target: Recombinant human c-KIT kinase (Homo sapiens (Human), UniProt P10721); experiment: c-KIT kinase chemiluminescence assay (ADP-Glo); assay type: biochemical; settings: ATP 50 μM
Summary of the method: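 Recombinant human c-KIT preincubated 30 min at RT in 40 mM Tris pH 7.5, 20 mM MgCl2, 0.1 mg/mL BSA, 50 μM DTT, then reacted 2 h at RT with ATP and polyEY substrate. ADP-Glo luminescence readout; activity normalized to high/low controls, IC50 and Hill coefficient from inhibitor-versus-normalized-response fit.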

M-07e cells = experiment: M-07e cellular assay (SCF-mediated cell proliferation); assay type: cell-based; settings: Homo sapiens, 72 hours, CellTiter Glo
Summary of the method: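 CellTiter Glo luminescence after 72 h compound exposure in SCF (EC90)-stimulated M-07e cells expressing endogenous human c-KIT.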

Recombinant human c-KIT kinase, sequence (P10721 26-976): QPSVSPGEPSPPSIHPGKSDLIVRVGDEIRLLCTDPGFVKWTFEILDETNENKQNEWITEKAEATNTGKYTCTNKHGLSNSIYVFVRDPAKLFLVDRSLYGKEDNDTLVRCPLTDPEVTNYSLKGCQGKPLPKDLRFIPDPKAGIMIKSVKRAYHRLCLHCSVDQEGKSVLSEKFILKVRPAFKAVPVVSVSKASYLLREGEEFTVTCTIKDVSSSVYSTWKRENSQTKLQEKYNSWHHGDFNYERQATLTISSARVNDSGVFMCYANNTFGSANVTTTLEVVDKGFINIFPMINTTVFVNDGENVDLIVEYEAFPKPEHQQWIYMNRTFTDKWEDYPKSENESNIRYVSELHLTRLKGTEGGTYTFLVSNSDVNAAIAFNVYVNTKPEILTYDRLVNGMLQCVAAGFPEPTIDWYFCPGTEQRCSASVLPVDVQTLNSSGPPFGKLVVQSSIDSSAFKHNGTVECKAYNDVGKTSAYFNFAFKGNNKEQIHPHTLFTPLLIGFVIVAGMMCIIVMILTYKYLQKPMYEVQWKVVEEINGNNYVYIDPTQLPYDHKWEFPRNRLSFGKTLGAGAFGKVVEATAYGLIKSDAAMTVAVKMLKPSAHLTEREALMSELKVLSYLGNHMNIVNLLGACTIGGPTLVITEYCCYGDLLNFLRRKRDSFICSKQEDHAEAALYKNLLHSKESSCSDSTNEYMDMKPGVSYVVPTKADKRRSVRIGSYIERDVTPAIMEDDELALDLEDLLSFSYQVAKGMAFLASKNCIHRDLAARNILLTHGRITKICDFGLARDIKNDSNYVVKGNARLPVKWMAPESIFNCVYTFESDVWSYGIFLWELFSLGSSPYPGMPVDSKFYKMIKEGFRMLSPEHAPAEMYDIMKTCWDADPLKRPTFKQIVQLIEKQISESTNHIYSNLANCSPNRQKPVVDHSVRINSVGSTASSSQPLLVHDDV

| SMILES | IC50 [1] | EC50 (M-07e cells) |
| --- | --- | --- |
| Cc1ccc(-c2noc(N3CCOCC3)n2)cc1NC(=O)c1cnn2ccc(N3CC4(COC4)C3)cc12 [Example 281-83] | 100 to 1000 nM | < 100 nM |
| Cc1ncc(-c2noc(C3CN(C(=O)C4(F)CC4)C3)n2)cc1NC(=O)c1cnn2ccc(N3CC4(C3)CC(O)(C(F)F)C4)cc12 [Example 281-84] | > 1000 nM | 100 to 1000 nM |
| Cc1ncc(-c2noc(C3CN(C(=O)C4(F)CC4)C3)n2)cc1NC(=O)c1cnn2ccc(N3CC4(COC4)C3)cc12 [Example 281-85] | > 1000 nM | 100 to 1000 nM |
| Cc1ncc(-c2noc(C3CN(C(=O)C4CC4)C3)n2)cc1NC(=O)c1cnn2ccc(N3CC4(C3)CC(O)(C(F)F)C4)cc12 [Example 281-86] | > 1000 nM | > 1000 nM |
| Cc1ncc(-c2noc(C3CN(C(=O)C4CC4)C3)n2)cc1NC(=O)c1cnn2ccc(N3CC4(COC4)C3)cc12 [Example 281-87] | > 1000 nM | > 1000 nM |
| Cc1ncc(-c2noc(C3CN(CC(F)(F)F)C3)n2)cc1NC(=O)c1cnn2ccc(N3CC4(C3)CC(O)(C(F)F)C4)cc12 [Example 281-88] | 100 to 1000 nM | < 100 nM |
| Cc1ncc(-c2noc([C@H]3CC3(F)F)n2)cc1NC(=O)c1cnn2ccc(N3CC4(C3)CC(O)(C(F)F)C4)cc12 [Example 281-89] | 100 to 1000 nM | < 100 nM |
| Cc1ncc(-c2noc(C3CN(C(=O)OC(C)(C)C)C3)n2)cc1NC(=O)c1cnn2ccc(N3CC4(C3)CC(O)(C(F)F)C4)cc12 [Example 281-90] | > 1000 nM | 100 to 1000 nM |
| Cc1ncc(-c2noc(C3CN(C(=O)[C@H]4CC4(F)F)C3)n2)cc1NC(=O)c1cnn2ccc(N3CC4(C3)CC(O)(C(F)F)C4)cc12 [Example 281-91] | > 1000 nM | > 1000 nM |
| Cc1ccc(-c2noc(C3CCN(C(=O)[C@H]4C[C@@H]4F)C3)n2)cc1NC(=O)c1cnn2ccc(N3CC4(COC4)C3)cc12 (some centres unmarked) [Example 281-92] | 100 to 1000 nM | 100 to 1000 nM |
| Cc1ccc(-c2noc(C3CCN(C(=O)[C@H]4C[C@@H]4F)CC3)n2)cc1NC(=O)c1cnn2ccc(N3CC4(COC4)C3)cc12 [Example 281-93] | 100 to 1000 nM | 100 to 1000 nM |
| O=C(Nc1cc(-c2noc([C@H]3C[C@@H]3F)n2)ccc1C1CC1)c1cnn2ccc(N3CC4(COC4)C3)cc12 [Example 281-94] | > 1000 nM | > 1000 nM |
| Cc1sc(-c2noc([C@H]3C[C@@H]3F)n2)cc1NC(=O)c1cnn2ccc(N3CC4(C3)CC(O)(C(F)F)C4)cc12 [Example 281-95] | 100 to 1000 nM | < 100 nM |
| Cc1ccc(-c2noc(C3CCN(C(=O)[C@H]4C[C@@H]4F)C3)n2)cc1NC(=O)c1cnn2ccc(N3CC4(C3)CC(O)(C(F)F)C4)cc12 (some centres unmarked) [Example 281-96] | 100 to 1000 nM | 100 to 1000 nM |
| Cc1ccc(-c2noc(C3CCN(C(=O)[C@H]4C[C@@H]4F)CC3)n2)cc1NC(=O)c1cnn2ccc(N3CC4(C3)CC(O)(C(F)F)C4)cc12 [Example 281-97] | 100 to 1000 nM | 100 to 1000 nM |
| Cc1ccc(-c2noc(N3CC(F)(F)C3)n2)cc1NC(=O)c1cnn2ccc(N3CC4(C3)CC(O)(C(F)F)C4)cc12 [Example 281-98] | < 100 nM | < 100 nM |
| Cc1ccc(-c2noc(N3CC(O)(C(F)(F)F)C3)n2)cc1NC(=O)c1cnn2ccc(N3CC4(C3)CC(O)(C(F)F)C4)cc12 [Example 281-99] | < 100 nM | < 100 nM |
| Cc1ccc(-c2noc(N3CCOCC3)n2)cc1NC(=O)c1cnn2ccc(N3CC4(C3)CC(O)(C(F)F)C4)cc12 [Example 281-100] | 100 to 1000 nM | < 100 nM |
| Cc1ncc(-c2noc(C3(F)CN(C(=O)OC(C)(C)C)C3)n2)cc1NC(=O)c1cnn2ccc(N3CC4(C3)CC(O)(C(F)F)C4)cc12 [Example 281-101] | > 1000 nM | 100 to 1000 nM |
| Cc1ncc(-c2noc(C3(F)CN(C(=O)C(C)(F)F)C3)n2)cc1NC(=O)c1cnn2ccc(N3CC4(C3)CC(O)(C(F)F)C4)cc12 [Example 281-103] | 100 to 1000 nM | > 1000 nM |
| COC(=O)N1CC(F)(c2nc(-c3cnc(C)c(NC(=O)c4cnn5ccc(N6CC7(C6)CC(O)(C(F)F)C7)cc45)c3)no2)C1 [Example 281-104] | > 1000 nM | > 1000 nM |
| Cc1ncc(-c2noc(C3(F)CN(CC(F)F)C3)n2)cc1NC(=O)c1cnn2ccc(N3CC4(C3)CC(O)(C(F)F)C4)cc12 [Example 281-105] | 100 to 1000 nM | 100 to 1000 nM |
| Cc1ccc(-c2noc(C3CC4(C3)CN(C(=O)[C@H]3C[C@@H]3F)C4)n2)cc1NC(=O)c1cnn2ccc(N3CC4(COC4)C3)cc12 [Example 281-106] | 100 to 1000 nM | 100 to 1000 nM |
| Cc1ccc(-c2noc(C3CC4(C3)CN(C(=O)[C@H]3C[C@@H]3F)C4)n2)cc1NC(=O)c1cnn2ccc(N3CC4(C3)CC(O)(C(F)F)C4)cc12 [Example 281-107] | 100 to 1000 nM | 100 to 1000 nM |
| COC(=O)N1CCC(c2nc(-c3ccc(C)c(NC(=O)c4cnn5ccc(N6CC7(C6)CC(O)(C(F)F)C7)cc45)c3)no2)C1 (centres unmarked) [Example 281-108] | < 100 nM | < 100 nM |

| SMILES | IC50 [1] | EC50 (M-07e cells) |
| --- | --- | --- |
| COC(=O)N1CC2(CC(c3nc(-c4ccc(C)c(NC(=O)c5cnn6ccc(N7CC8(C7)CC(O)(C(F)F)C8)cc56)c4)no3)C2)C1 [Example 281-109] | < 100 nM | 100 to 1000 nM |
| CCOC(=O)N1CC(c2nc(-c3ccc(C)c(NC(=O)c4cnn5ccc(N6CC7(COC7)C6)cc45)c3)no2)C1 [Example 281-110] | < 100 nM | < 100 nM |
| Cc1sc(-c2noc(C3(F)CN(C(=O)[C@H]4C[C@@H]4F)C3)n2)cc1NC(=O)c1cnn2ccc(N3CC4(C3)CC(O)(C(F)F)C4)cc12 [Example 281-111] | > 1000 nM | 100 to 1000 nM |
| Cc1sc(-c2noc([C@H]3C[C@@H](OC(F)(F)F)C3)n2)cc1NC(=O)c1cnn2ccc(N3CC4(C3)CC(O)(C(F)F)C4)cc12 [Example 281-112] | < 100 nM | 100 to 1000 nM |
| Cc1sc(-c2noc([C@H]3C[C@@H](OC(F)(F)F)C3)n2)cc1NC(=O)c1cnn2ccc(N3CC4(COC4)C3)cc12 [Example 281-113] | 100 to 1000 nM | 100 to 1000 nM |
| Cc1sc(-c2noc(C3CN(C(=O)OC(C)(C)C)C3)n2)cc1NC(=O)c1cnn2ccc(N3CC4(COC4)C3)cc12 [Example 281-114] | > 1000 nM | > 1000 nM |
| Cc1sc(-c2noc(C3CN(C(=O)OC(C)(C)C)C3)n2)cc1NC(=O)c1cnn2ccc(N3CC4(C3)CC(O)(C(F)F)C4)cc12 [Example 281-115] | > 1000 nM | > 1000 nM |
| O=C(Nc1cc(-c2noc([C@H]3C[C@@H]3F)n2)ccc1C(F)F)c1cnn2ccc(N3CC4(COC4)C3)cc12 [Example 281-116] | 100 to 1000 nM | 100 to 1000 nM |
| Cc1sc(-c2noc([C@H]3C[C@@H]3F)n2)cc1NC(=O)c1cnn2ccc(N3CC4(COC4)C3)cc12 [Example 281-117] | 100 to 1000 nM | 100 to 1000 nM |
| O=C(Nc1cc(-c2noc([C@H]3C[C@@H]3F)n2)ccc1C(F)F)c1cnn2ccc(N3CC4(C3)CC(O)(C(F)F)C4)cc12 [Example 281-118] | 100 to 1000 nM | < 100 nM |
| O=C(Nc1cc(-c2noc(N3CC(F)(F)C3)n2)ccc1Cl)c1cnn2ccc(N3CC4(C3)CC(O)(C(F)F)C4)cc12 [Example 281-119] | 100 to 1000 nM | < 100 nM |
| Cc1ncc(-c2noc(N3CC(F)(F)C3)n2)cc1NC(=O)c1cnn2ccc(N3CC4(COC4)C3)cc12 [Example 281-120] | 100 to 1000 nM | 100 to 1000 nM |
| Cc1ncc(-c2noc(N3CC(F)(F)C3)n2)cc1NC(=O)c1cnn2ccc(N3CC4(C3)CC(O)(C(F)F)C4)cc12 [Example 281-121] | 100 to 1000 nM | < 100 nM |
| Cc1sc(-c2noc(C3CN(C(=O)C4CC4)C3)n2)cc1NC(=O)c1cnn2ccc(N3CC4(C3)CC(O)(C(F)F)C4)cc12 [Example 281-122] | 100 to 1000 nM | > 1000 nM |
| O=C(Nc1cc(-c2noc(N3CC(O)(C(F)(F)F)C3)n2)ccc1Cl)c1cnn2ccc(N3CC4(COC4)C3)cc12 [Example 281-123] | < 100 nM | < 100 nM |
| O=C(Nc1cc(-c2noc(N3CC(F)(F)C3)n2)ccc1Cl)c1cnn2ccc(N3CC4(COC4)C3)cc12 [Example 281-124] | 100 to 1000 nM | < 100 nM |
| O=C(Nc1cc(-c2noc(N3CC(O)(C(F)(F)F)C3)n2)ccc1Cl)c1cnn2ccc(N3CC4(C3)CC(O)(C(F)F)C4)cc12 [Example 281-125] | < 100 nM | < 100 nM |
| Cc1sc(-c2noc(C3CN(C(=O)[C@H]4C[C@@H]4F)C3)n2)cc1NC(=O)c1cnn2ccc(N3CC4(COC4)C3)cc12 [Example 281-126] | > 1000 nM | > 1000 nM |
| Cc1sc(-c2noc(C3CN(C(=O)[C@H]4C[C@@H]4F)C3)n2)cc1NC(=O)c1cnn2ccc(N3CC4(C3)CC(O)(C(F)F)C4)cc12 [Example 281-127] | 100 to 1000 nM | > 1000 nM |
| Cc1sc(-c2noc(C3CN(C(=O)C4(F)CC4)C3)n2)cc1NC(=O)c1cnn2ccc(N3CC4(COC4)C3)cc12 [Example 281-128] | 100 to 1000 nM | 100 to 1000 nM |
| Cc1sc(-c2noc(C3CN(C(=O)C4(F)CC4)C3)n2)cc1NC(=O)c1cnn2ccc(N3CC4(C3)CC(O)(C(F)F)C4)cc12 [Example 281-129] | 100 to 1000 nM | 100 to 1000 nM |
| Cc1ncc(-c2noc(C3CN(CC(F)F)C3)n2)cc1NC(=O)c1cnn2ccc(N3CC4(C3)CC(O)(C(F)F)C4)cc12 [Example 281-130] | 100 to 1000 nM | 100 to 1000 nM |
| COC(=O)N1CCC(c2nc(-c3ccc(C)c(NC(=O)c4cnn5ccc(N6CC7(COC7)C6)cc45)c3)no2)C1 (centres unmarked) [Example 281-131] | < 100 nM | < 100 nM |
| COC(=O)N1CCC(c2nc(-c3ccc(C)c(NC(=O)c4cnn5ccc(N6CC7(COC7)C6)cc45)c3)no2)CC1 [Example 281-132] | < 100 nM | < 100 nM |
